Data from patent US20150030542A1, “METHODS FOR MEDICAL IMAGING” (priority 2013, published 2015).

Tests used:
[1] = cited from earlier work
[2] = Semi-quantification of ICG concentration in plasma (fluorometry); assay type: in vivo, human
Description: Techniques have been previously described to use fluorometry to quantify concentrations of ICG in plasma. We obtained aliquots of each patient's blood before injection with ICG. These samples were spun down at 1100 RPM for 10 minutes and aliquots of plasma were removed. 2 mg of ICG was dissolved in 1 ml of plasma and serially diluted thirteen times to a concentration of 125 μg per liter. 100 microliters of each of these dilutions were pipetted into a separate wells in a standard black 96 well plate along with one well of 100 microliters of plasma without ICG. At the time of operation, each patient had their plasma obtained and serially diluted six times to a final ratio of 1:1000. Plates were examined using a SpetraMax Fluorometer® with a peak excitation of 805 nm and 830 nm. Each well was scanned 6 times. Readings were export as Microsoft Excel® spread sheets.

chest and breast tumors = assay: Pilot patient study: intraoperative in vivo/in situ NIR imaging of tumor fluorescence
Description: Between January and June 2012, 27 consecutive patients who were candidates for surgical removal of chest and breast tumors were enrolled in this study (Table 1). Patients were given a single peripheral vein injection of 5 mg/kg ICG, 24 hours prior to surgery. […] Their ages ranged from 31 to 78 years (median=65 years). […] All enrolled patients were thought to have limited disease, amenable to surgery, and had no metastases (ie. potentially curable). […] Preoperative computed axial and positron emission tomography and/or magnetic resonance imaging predicted no metastatic disease in each case. The median tumor size was 2.0 cm (range 0.6-13.0 cm) on preoperative imaging. Each patient had serum obtained before and 24 hours after ICG injection.
To determine if indocyanine green would be delivered to human tumors, patients undergoing cancer surgery were first imaged in vivo at the onset of the operation. At the time of surgery, the chest was opened and inspected by standard visualization and manual palpation. […] A dual camera head with a brightfield and a NIR output was then used to visualize tumor fluorescence (FIG. 7). […] Attempts to quantitate tumor fluorescence in vivo were not feasible for several reasons including variations in operating room conditions, lack of miniaturized tissue spectrometer with safe laser light source and the inability to control for changes in distance from the specimen to the tip of the spectrometer. […] All quantitative measurements were made later ex vivo once the specimen had been removed. To examine in vivo data on the distribution of ICG, a complete visual examination of the each patients' skin, muscles (lattismus dorsi, serratus anterior, intercostal, diaphragm), pericardium and heart, aorta, normal lung, lymph nodes, adipose tissues, nerves (phrenic, intercostal), and thymus was performed whenever possible.
Thus, prior to closing the body cavity but after the tumor was removed, the chest or breast was inspected visually and by manual palpation for sites of cancer metastases. […] Then, to validate the surgeons' clinical decision, the chest was imaged for NIR fluorescence.
The other application of tumor fluorescence during surgery was to confirm that resection was complete and that no tumor cells were left behind in the surgical field. Thus, once the surgeons had completed each case and decided they had obtained disease clearance at the surgical site, the surgical wound and resection field was imaged.

[3] = in vivo, cited from earlier work
human tumors [4] = assay: Semi-quantification of ICG concentration in tumors (imaging beside ICG standard panel); assay type: in vivo
Description: To quantify the concentration of ICG in the resected tissues, normal (control) and cancerous tissues were imaged ex vivo alongside a standard control panel of known concentrations of ICG aliquots mixed with plasma from the same patient. Our system was able to detect concentrations between 0 μg/ml and 2000 μg/ml. […] However, in the tumors, there was a broad range of ICG concentration. In 9 of the 10 specimens, the ICG concentration ranged from 2 to 100 μg/ml (FIG. 3c). No tumor fluoresced above an ICG concentration of 100 μg/ml. However, from a subjective point-of-view, the surgeon was not able to identify any tumors as more or less fluorescent. One cancer (metastatic melanoma) had less than 1 μg/ml of ICG and was not subjectively fluorescent to the surgeon. We also attempted to measure ICG concentration in the tissue by homogenizing punch biopsies and measuring fluorescence in a standard desk fluorometer, however, this approach was unreliable.
To quantify the maximum concentration of ICG in each tumor, 10 patients had their plasma collected at the time of operation. Two mg of ICG was dissolved in 1 ml of plasma and serially diluted 8 times to a final ratio of 1:20,000. 100 μL of stock solution and each dilution was then placed in consecutive wells in a black 96 well plate. When tumors were imaged ex-vivo, this plate was concurrently imaged. These images were then imported into ImageJ® software. Region of interest (ROI) data was taken from each of the 9 wells and from the tumor. The maximum fluorescent signal from the tumor was compared to the wells to determine the highest concentration per tumor. Each tumor was then categorized as have an ICG concentration between given the standards in the known panel.

Lewis Lung Cancer (LLC) = assay: NIR detection of flank tumors and pulmonary metastases in the LLC mouse model
Description: (§1) Preclinical evidence for NM tumor labeling to detect primary and metastatic tumor deposits. (A) Six cancer cell types were injected into the flank of syngeneic mice. Once established (200 mm3), animals were dosed with 7.5 mg/kg of ICG and imaged. Tumors were harvested, imaged and stained for CD31. Histology images taken at 200× magnification (B) C57bl/6 mice (n=21) were injected with LLC cells in their flanks on Day 0. Starting on Day 12, the animals were euthanized, dosed with 7.5 mg/kg ICG 20 hours earlier and their thoracic cavities opened. Observers determined if the metastatic tumor nodules were visible in the lung. NIR imaging was then used to detect disease that was not visible to the un-assisted human eye.
Starting on Day 12, mice (n=9) were injected with 7.5 mg/kg of ICG via tail vein every three days. […] Subsequently, the chest was opened and inspected for NIR emission from pulmonary metastases.
Female C57BL/6 (B6, Thy1.2), BALB/c, athymic Ncr-nu/nu and B6-12931 hybrid mice mice were purchased from Charles River Laboratories and Jackson Laboratories. All mice were maintained in pathogen-free conditions and used for experiments at ages 8 week or older. […] Tumor cells for subcutaneous injections were suspended in 100 μL PBS. Tumor volume was calculated using the formula (π×long-axis×short-axis^2)/6.
Pharmaceutical grade indocyanine green (ICG) was purchased from Akorn Pharmaceuticals (Lake Forest, Ill.). Mice received 7.5 mg/kg ICG via tail vein 20 hours prior to surgery.
A hand-held near infrared spectrometer has been previously described in detail.^18 In brief, a Raman probe detector was incorporated into a cylindrical stainless steel sampling head integrated with a 5 m, two-fiber cable; one for laser excitation and the other for light collection. The sampling head and fiber cable were coupled via an FC connector to a spectrometer. The combined sampling head and spectrometer system has a wavelength range of 800-930 nm with 0.6 nm spectral resolution for near infrared (NIR) fluorescence measurement. […] The signal can be semi-quantitated from 0 to 60,000 arbitrary units (au).

human tumors [5] = assay: Ex vivo analysis of tumor fluorescence of resected specimens (NIR imaging, hand-held spectrometer); assay type: in vivo
Text: Following in vivo imaging, the patients then underwent a standard-of-care surgical resection of the tumor. Once removed from the patient, the specimen was examined, opened, biopsied and analyzed ex vivo (FIG. 2a). Every case was photo-documented both by brightfield imaging and NIR imaging. […] Then, the hand held spectrometer was used to semi-quantitate tissue fluorescence. Each tumor had 4 measurements at four perpendicular locations and the center of the tumor (total of 20 measurements/tumor). Mean fluorescence in the human tumors was 53,304±4193 au in 25 out of 27 masses (93%) (FIG. 2b). We conjectured that the center of the tumor might be less fluorescent than the periphery due to necrosis or, conversely, that the center of the tumor might be more fluorescent than the periphery due to increased ICG retention. We found neither to be true. The fluorescence from the tumors was remarkably homogeneous throughout the tumor. We believe this reflects “bleed over” of the fluorescent signal from different areas of the tumor surface. The quality of the image was subjectively better ex vivo than in vivo due to the lack of respiratory motion, light artifact and glare from surrounding tissue retractors. Depending on the different tissues removed from each patient as part of the standard operation, a thorough spectroscopic examination was performed. The average signal diminished from over 50,000 au at the tumor margin to less than 12,000 au within 2 mm of the gross tumor margin. There were some higher signals in areas of atelectatic lung (range 0 to 24,832 au), however, this could easily be distinguished from the tumor by manual palpation. The background signal was measured from the patients' skin, muscles (latissmus dorsi, serratus anterior, intercostal), pericardium, normal lung, lymph nodes, adipose tissues, nerves (intercostal), airway and thymus whenever safely possible (FIG. 2b).
There were 25 cancers and 2 non-cancers (aspergilloma and pulmonary infarct). The two masses that were not fluorescent were a metastatic melanoma (7,342±411 au) and a pulmonary infarct (hematoma, 8,002±554 au). The aspergillus ball, a localized fungus infection, was fluorescent (58,209±1,302 au) likely due to the strong inflammatory reaction surrounding it. […] The pulmonary infarct or hematoma was an old clot secondary to trauma in a person that had been mistaken for a cancer on preoperative imaging. […]

[6] = test system: 4T1 breast cancer, TC1 lung cancer, EL4 thymoma, AE17 mesothelioma, AKR esophageal cancer flank tumors; assay: NIR labeling of syngeneic flank tumors in mice with systemic ICG (tissue spectrometer); conditions: 7.5 mg/kg ICG via tail vein, next day, flank tumors ~200 mm^3, five cell lines
Description: as §1
After the tumors were well established (˜200 mm^3), 7.5 mg/kg of ICG was administered via the tail vein. The next day, a tissue spectrometer was used to semi-quantitate fluorescence from the tumor, surrounding tissue and 12 organs. […] Tumors were harvested, sectioned and assayed for microvessel density to determine if there was a correlation between tumor vascularity and fluorescence (FIG. 1a).
All mice were maintained in pathogen-free conditions and used for experiments at ages 8 week or older. […] Tumor cells for subcutaneous injections were suspended in 100 μL PBS. Tumor volume was calculated using the formula (π×long-axis×short-axis^2)/6. […]

[7] = ex vivo spectroscopic examination

CN(C)c1ccc2nc3ccc(=[N+](C)C)cc-3sc2c1 [MB, methylene blue]
adverse reactions ([1]; 7.5 mg/kg, e.g. methemoglobinaemia or anaphylaxis): sometimes causes severe adverse reactions

CC1(C)C(/C=C/C=C/C=C/C=C2\N(CCCCS(=O)(=O)[O-])c3ccc4ccccc4c3C2(C)C)=[N+](CCCCS(=O)(=O)[O-])c2ccc3ccccc3c21.[Na+] [ICG, indocyanine green]
ICG in patient's plasma 24 hours after ICG injection ([2]; SpetraMax Fluorometer): No measurable ICG | ICG in plasma after 20 hours ([2]; patients, 5 mg/kg ICG peripheral vein, fluorometric interrogation of serum): no patient had detectable ICG | cancer cases in which fluorescence identified unrecognized metastatic tumor deposits (chest and breast tumors; 2 patients, sites greater than 5 cm from primary tumor, confirmed by frozen biopsy): 8% | cases in which dual camera head could detect tumor fluorescence in vivo (chest and breast tumors; 16 out of 27 cases, 5 mg/kg ICG 24 hours prior to surgery): 59% | fluorescence of three metastatic sites in right lower pulmonary lobe (chest and breast tumors; Patient #2): > 48,000 au | smallest metastatic nodule detected, diameter (chest and breast tumors; Patient #2): 0.4 mm | mean fluorescence of breast mass in the operating room (chest and breast tumors; Patient #24, infiltrative ductal carcinoma): 52,748 au | in vivo fluorescence of normal tissues (skin, muscles, pericardium, heart, aorta, lung, lymph nodes, adipose, nerves, thymus) (chest and breast tumors; all cases, visual examination): no tissue fluorescence except the abnormal tumor | deepest tumor that could be detected, distance from the surface of the organ (chest and breast tumors; in vivo NIR imaging): ~1 cm | Clinical Details: lesion fluorescence (chest and breast tumors; per case): Benign lesion did not glow. | patients upstaged by intraoperative imaging of fluorescent tumors (2 out of 27 patients): 7.4% | toxicities, adverse events or deaths related to injection of ICG (27 patients, 5 mg/kg ICG): no obvious toxicities, adverse events or deaths | fraction of ICG binding to serum proteins (albumin, lipoproteins) upon injection into the blood [3]: 95% | ICG concentration in tumors (human tumors [4]; 9 of the 10 specimens, ex vivo): 2 to 100 µg/mL | ICG concentration in control tissues of normal lung (human tumors [4]; ex vivo, 5 mg/kg ICG): undetectable | ICG concentration in metastatic melanoma (human tumors [4]; one cancer, not subjectively fluorescent): less than 1 μg/ml | earliest day NIR signal from pulmonary metastases detected (Lewis Lung Cancer (LLC); LLC injected Day 0, 7.5 mg/kg ICG, deposits not visible to un-assisted eye): 15 days | smallest pulmonary metastatic deposit detected (Lewis Lung Cancer (LLC); by histology): 0.4 mm | background fluorescence (mean) (Lewis Lung Cancer (LLC); murine lung): 4290 au | masses with strong fluorescence, qualitative NIR imaging (human tumors [5]; 25 out of 27 masses, ex vivo): 92% | mean fluorescence in the human tumors (human tumors [5]; 25 out of 27 masses, ex vivo hand held spectrometer): 53,304±4193 au | fluorescence of non-fluorescent metastatic melanoma (human tumors [5]; ex vivo): 7,342±411 au | mean fluorescence of highly fluorescent melanoma (human tumors [5]; ex vivo): 57,210 au | mean fluorescence of minimally fluorescent melanoma in a different patient (human tumors [5]; ex vivo): 7,332 au | signal in areas of atelectatic lung (range) (human tumors [5]; ex vivo): 0 to 24,832 au | average signal at the tumor margin (human tumors [5]; [7]): over 50,000 au | average signal within 2 mm of the gross tumor margin (human tumors [5]; [7]): less than 12,000 au | fluorescence of aspergillus ball (human tumors [5]; ex vivo, localized fungus infection): 58,209±1,302 au | fluorescence of pulmonary infarct (hematoma) (human tumors [5]; ex vivo, non-cancer): 8,002±554 au | background signal in surrounding tissue in the body cavity (human tumors [5]; skin, muscles, pericardium, normal lung, lymph nodes, adipose, nerves, airway, thymus): no evidence of background signal | mean fluorescence from the tumor [6]: 54,238 au | known toxicity of the agent ([1]; Indocyanine Green for Injection USP): no known toxicity

CN1C(=CC=C2CCCC(C=CC3=[N+](C)c4ccccc4C3(C)C)=C2Cl)C(C)(C)c2ccccc21.[O-][Cl+3]([O-])([O-])[O-] [IR-786]
clearance after intravenous injection ([3]; iv): rapidly extracted into many tissues in the body, especially the liver, and is inefficiently transported into bile
